Results published in PubChem BioAssay (NCI).
In brackets after ≈: the same amount, converted by molar mass.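 Method: 48-hour compound exposure of cells in 96-well plates, five concentrations, linear interpolation of endpoints. Here, GI50 denotes the concentration required for 50% inhibition of growth. TGI: concentration producing complete growth inhibition.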 Where a SMILES comes first, the peptide text is derived from it. The star is where a group is joined. Boc = CC(C)(C)OC(=O)*; OcHex = C1CCC(O*)CC1

How the values were obtained:
Assay in all cases: NCI anticancer screen, dose series, 48 h
HS 578T breast = tested on: HS 578T breast
COLO 205 colon = tested on: COLO 205 colon
T-47D breast = tested on: T-47D breast
SF-295 CNS = tested on: SF-295 CNS
A498 renal = tested on: A498 renal
OVCAR-3 ovarian = tested on: OVCAR-3 ovarian
CAKI-1 renal = tested on: CAKI-1 renal
SN12C renal = tested on: SN12C renal
OVCAR-8 ovarian = tested on: OVCAR-8 ovarian
HL-60(TB) leukemia = tested on: HL-60(TB) leukemia
DU-145 prostate = tested on: DU-145 prostate
NCI-H460 lung = tested on: NCI-H460 lung
NCI-H522 lung = tested on: NCI-H522 lung
SNB-19 CNS = tested on: SNB-19 CNS
UACC-257 melanoma = tested on: UACC-257 melanoma
TK-10 renal = tested on: TK-10 renal
HCT-116 colon = tested on: HCT-116 colon
RPMI-8226 leukemia = tested on: RPMI-8226 leukemia
SF-268 CNS = tested on: SF-268 CNS
786-0 renal = tested on: 786-0 renal
NCI-H226 lung = tested on: NCI-H226 lung
MDA-MB-435 = tested on: MDA-MB-435
SK-MEL-28 melanoma = tested on: SK-MEL-28 melanoma
MCF7 breast = tested on: MCF7 breast
SF-539 CNS = tested on: SF-539 CNS
K-562 leukemia = tested on: K-562 leukemia
NCI-H23 lung = tested on: NCI-H23 lung
HOP-62 NSCLC = tested on: HOP-62 NSCLC
LOX IMVI melanoma = tested on: LOX IMVI melanoma
SW-620 colon = tested on: SW-620 colon
EKVX NSCLC = tested on: EKVX NSCLC
IGROV1 ovarian = tested on: IGROV1 ovarian
MOLT-4 leukemia = tested on: MOLT-4 leukemia
SK-MEL-2 melanoma = tested on: SK-MEL-2 melanoma
UO-31 renal = tested on: UO-31 renal
OVCAR-4 ovarian = tested on: OVCAR-4 ovarian
RXF 393 renal = tested on: RXF 393 renal
M14 melanoma = tested on: M14 melanoma
MDA-MB-231 breast = tested on: MDA-MB-231 breast
PC-3 prostate = tested on: PC-3 prostate
SK-MEL-5 melanoma = tested on: SK-MEL-5 melanoma
NCI/ADR-RES ovarian = tested on: NCI/ADR-RES ovarian
UACC-62 melanoma = tested on: UACC-62 melanoma
SK-OV-3 ovarian = tested on: SK-OV-3 ovarian
U251 CNS = tested on: U251 CNS
A549 NSCLC = tested on: A549 NSCLC
CCRF-CEM leukemia = tested on: CCRF-CEM leukemia
KM12 colon = tested on: KM12 colon
MALME-3M melanoma = tested on: MALME-3M melanoma
HOP-92 NSCLC = tested on: HOP-92 NSCLC
SNB-75 CNS = tested on: SNB-75 CNS
BT-549 breast = tested on: BT-549 breast

COc1ccc(Nc2cnc3cc(N)cc(N)c3n2)cc1
GI50 (HS 578T breast): 21.9 µM
TGI (HS 578T breast): 63.3 µM
GI50 (COLO 205 colon): 30.5 µM
TGI (COLO 205 colon): > 100 µM
GI50 (T-47D breast): 27 µM
TGI (T-47D breast): 75.5 µM
GI50 (SF-295 CNS): 22.3 µM
TGI (SF-295 CNS): 48.7 µM
GI50 (A498 renal): 16.9 µM
TGI (A498 renal): 59.1 µM
GI50 (OVCAR-3 ovarian): 11.4 µM
TGI (OVCAR-3 ovarian): 27.3 µM
GI50 (CAKI-1 renal): 23 µM
TGI (CAKI-1 renal): 64.9 µM
GI50 (SN12C renal): 15.6 µM
TGI (SN12C renal): 37 µM
GI50 (OVCAR-8 ovarian): 14.1 µM
TGI (OVCAR-8 ovarian): 29.4 µM
GI50 (HL-60(TB) leukemia): 5.49 µM
TGI (HL-60(TB) leukemia): 73.7 µM
GI50 (DU-145 prostate): 30.4 µM
TGI (DU-145 prostate): > 100 µM
GI50 (NCI-H460 lung): 21.9 µM
TGI (NCI-H460 lung): 53.5 µM
GI50 (NCI-H522 lung): 16.6 µM
TGI (NCI-H522 lung): 43.6 µM
GI50 (SNB-19 CNS): 32.8 µM
TGI (SNB-19 CNS): > 100 µM
GI50 (UACC-257 melanoma): 19.4 µM
TGI (UACC-257 melanoma): 45.9 µM
GI50 (TK-10 renal): 23.7 µM
TGI (TK-10 renal): 76.2 µM
GI50 (HCT-116 colon): 23.8 µM
TGI (HCT-116 colon): 54.1 µM
GI50 (RPMI-8226 leukemia): 4.53 µM
TGI (RPMI-8226 leukemia): 25.7 µM
GI50 (SF-268 CNS): 17.7 µM
TGI (SF-268 CNS): 39.8 µM
GI50 (786-0 renal): 18.2 µM
TGI (786-0 renal): 42.9 µM
GI50 (NCI-H226 lung): 17.2 µM
TGI (NCI-H226 lung): 45.8 µM
GI50 (MDA-MB-435): 16.7 µM
TGI (MDA-MB-435): 33.8 µM
GI50 (SK-MEL-28 melanoma): 21.2 µM
TGI (SK-MEL-28 melanoma): 44.8 µM
GI50 (MCF7 breast): 18.4 µM
TGI (MCF7 breast): 40.9 µM
GI50 (SF-539 CNS): 17.3 µM
TGI (SF-539 CNS): 36.6 µM
GI50 (K-562 leukemia): 5.69 µM
TGI (K-562 leukemia): > 100 µM
GI50 (NCI-H23 lung): 2.02 µM
TGI (NCI-H23 lung): 7.65 µM
GI50 (HOP-62 NSCLC): 24.4 µM
TGI (HOP-62 NSCLC): 51.9 µM
GI50 (LOX IMVI melanoma): 18.8 µM
TGI (LOX IMVI melanoma): 40.5 µM
GI50 (SW-620 colon): 21.8 µM
TGI (SW-620 colon): 52.8 µM
GI50 (EKVX NSCLC): 22 µM
TGI (EKVX NSCLC): 42.6 µM
GI50 (IGROV1 ovarian): 17.6 µM
TGI (IGROV1 ovarian): 37.7 µM
GI50 (MOLT-4 leukemia): 12.5 µM
TGI (MOLT-4 leukemia): > 100 µM
GI50 (SK-MEL-2 melanoma): 14.4 µM
TGI (SK-MEL-2 melanoma): 32 µM
GI50 (UO-31 renal): 25.7 µM
TGI (UO-31 renal): 98.5 µM
GI50 (OVCAR-4 ovarian): 21.4 µM
TGI (OVCAR-4 ovarian): 48.5 µM
GI50 (RXF 393 renal): 17.6 µM
TGI (RXF 393 renal): 39.6 µM
GI50 (M14 melanoma): 14.5 µM
TGI (M14 melanoma): 28 µM
GI50 (MDA-MB-231 breast): 10.5 µM
TGI (MDA-MB-231 breast): 26.2 µM
GI50 (PC-3 prostate): 14.7 µM
TGI (PC-3 prostate): 27.9 µM
GI50 (SK-MEL-5 melanoma): 16 µM
TGI (SK-MEL-5 melanoma): 29.8 µM
GI50 (NCI/ADR-RES ovarian): 16.4 µM
TGI (NCI/ADR-RES ovarian): 35 µM
GI50 (UACC-62 melanoma): 14.6 µM
TGI (UACC-62 melanoma): 28.8 µM
GI50 (SK-OV-3 ovarian): 28.2 µM
TGI (SK-OV-3 ovarian): 80.9 µM
GI50 (U251 CNS): 14.9 µM
TGI (U251 CNS): 35.5 µM
GI50 (A549 NSCLC): 26.8 µM
TGI (A549 NSCLC): > 100 µM
GI50 (CCRF-CEM leukemia): 14.8 µM
TGI (CCRF-CEM leukemia): 89.7 µM
GI50 (KM12 colon): 18.4 µM
TGI (KM12 colon): 36.2 µM
GI50 (MALME-3M melanoma): 15.2 µM
TGI (MALME-3M melanoma): 39.4 µM

CC(C)CC(NC(=O)OC(C)(C)C)C(=O)NC(CCC(=O)OC1CCCCC1)C(N)=O (stereo not drawn) (Boc-Leu-Glu(OcHex)-NH2; configuration not given here)
GI50 (HOP-92 NSCLC): 12.5 µg/mL (≈ 28.4 µM)
TGI (HOP-92 NSCLC): 36.7 µg/mL (≈ 83 µM)
GI50 (NCI-H522 lung): 12.2 µg/mL
TGI (NCI-H522 lung): 45.9 µg/mL
GI50 (UACC-257 melanoma): 51.2 µg/mL
GI50 (SK-MEL-28 melanoma): 44.8 µg/mL
GI50 (SNB-75 CNS): 71.5 µg/mL (≈ 162 µM)
GI50 (K-562 leukemia): 51.9 µg/mL
GI50 (MOLT-4 leukemia): 62.9 µg/mL
GI50 (UO-31 renal): 94.8 µg/mL
GI50 (M14 melanoma): 78.8 µg/mL
GI50 (UACC-62 melanoma): 94.8 µg/mL
GI50 (SK-OV-3 ovarian): 92.7 µg/mL
GI50 (BT-549 breast): 63.5 µg/mL (≈ 144 µM)
GI50 (MALME-3M melanoma): 42.9 µg/mL
